Test results published in patent US20060063736A1, “Compositions and methods for inhibiting mucin-type O-linked glycosylation” (priority 2004, published 2006).
Read-outs that look alike come from different tables or passages of the source.

Legend:
Jurkat cells [1] = experiment: Annexin-V staining of Jurkat cells (apoptosis); format: cell-based, human; details: 2 d treatment
Method: (§1) Jurkat cells were seeded at 250,000 cells/well (determined by Coulter cell counter) in 12-well polystyrene tissue culture plates in 1.0 mL of media and treated with various concentrations of 1-68A or 2-68A from 50 mM dimethyl sulfoxide (DMSO) stock solutions or doxorubicin or campothecin from 1 mM DMSO stock solutions. After 2 d, cells were harvested, washed twice with PBS buffer (PBS, pH 7.4, 0.1% FCS, 0.1% NaN3 w/v) and stained with FITC-HPA (1 μg/mL) or FITC-Con A (5 μg/mL with 1 mM CaCl2) in PBS, pH 7.4 in the dark for 1 h at 4° C. Cells were washed twice with PBS buffer, resuspended in 300 μL of PBS buffer and analyzed by flow cytometry (FacsCaliber, BD Instruments). Annexin-V staining was performed according to the manufacturer's protocols (Invitrogen).
(§2) To directly monitor ppGalNAcT activities in cells, Jurkat cells (human T-cell lymphoma), which are known to produce only the Tn-antigen (FIG. 1) as their O-linked glycans, were chosen. Piller et al. (1990) J. Biol. Chem. 265:9264-9271. Changes in Tn-antigen expression on the surface of Jurkat cells were monitored by HPA binding followed by flow cytometry analysis. Con A staining of N-linked glycans was used as a control for non-specific inhibition of protein glycosylation. Baenziger and Fiete (1979) J. Biol. Chem. 254:2400-2407.

mppGalNAcT-4 = biological target: T1, mppGalNAcT-4 (Mus musculus, UniProt O08832); experiment: ELLA for ppGalNAcTs, mppGalNAcT-4; format: biochemical, murine; details: 20 μM UDP-GalNAc, 50 μM EA2 peptide 4
T1 construct: plasmids encoding truncated secreted ppGalNAcTs-1 to −5, -7, -10 and -11; made in house; host or cells: COS-7
T1 sequence (O08832 36-578 limits assumed): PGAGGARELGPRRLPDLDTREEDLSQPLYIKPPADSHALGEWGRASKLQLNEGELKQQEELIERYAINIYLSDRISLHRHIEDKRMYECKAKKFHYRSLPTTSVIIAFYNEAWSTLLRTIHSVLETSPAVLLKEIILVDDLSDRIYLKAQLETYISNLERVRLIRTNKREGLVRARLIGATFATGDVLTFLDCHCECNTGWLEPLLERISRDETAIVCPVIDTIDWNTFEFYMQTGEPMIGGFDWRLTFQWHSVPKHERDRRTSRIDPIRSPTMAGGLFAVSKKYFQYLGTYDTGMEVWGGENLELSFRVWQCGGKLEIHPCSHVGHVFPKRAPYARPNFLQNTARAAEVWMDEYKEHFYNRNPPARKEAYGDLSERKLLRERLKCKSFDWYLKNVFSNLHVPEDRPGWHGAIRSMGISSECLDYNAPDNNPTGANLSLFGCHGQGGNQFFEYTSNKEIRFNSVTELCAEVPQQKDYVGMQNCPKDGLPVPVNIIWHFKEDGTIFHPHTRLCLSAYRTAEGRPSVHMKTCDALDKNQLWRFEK
Method: COS-7 cells were transiently transfected with plasmids encoding truncated secreted ppGalNAcTs-1 to −5, -7, -10 and -11 as previously described. Hagen et al. (1997) J. Biol. Chem. 272:13843-13848. The crude conditioned medium was used as the enzyme source.
Standard reaction conditions for ppGalNAcT assays were as follows. The reaction mixture contained the following components in a final volume of 25 μL: 10 mM MnCl2, 40 mM sodium cacodylate, 40 mM β-mercaptoethanol, 0.1% Triton X-100, pH 6.5, 5 μL of conditioned media, and various concentrations of EA2 peptide 4, UDP-GalNAc and inhibitor. All uridine-based compounds were dissolved in dimethyl sulfoxide (DMSO). […] Reaction rates were linear over the period monitored (20-30 min).
96-Well NeutrAvidin-coated plates were prewashed 3 times with 200 μL of wash buffer (25 mM Tris, 150 mM NaCl, 0.1% bovine serum albumin (BSA) (w/v), and 0.05% Tween (v/v), pH 7.2). […] After 3 washes with 200 μL of PBS, bound HPA-HRP was quantified by the addition of 100 μL of TMB peroxide solution. […] HRP activity was terminated by the addition of 50 μL of 2 N H2SO4 and the resulting solution was analyzed at 450 nm using a UV/Vis microtiter plate reader. The amount of product generated by the ppGalNAcT was extrapolated from absorbance values using an equation fit to the standard curve derived from Origin 6.1 software.

Jurkat cells [2] = experiment: HPA staining of Jurkat cells (Tn-antigen), flow cytometry; format: cell-based, human; details: Homo sapiens, 48 h, read-out: EC50 of inhibition of HPA staining
Method: as §1, §2

Row | SMILES | Annexin-V staining (induction of apoptosis) (Jurkat cells [1]) | IC50 (mppGalNAcT-4) | EC50 (Jurkat cells [2]; Jurkat cells, 2 d treatment) | EC50 (Jurkat cells [2]; Jurkat)
1 | O=c1ccn([C@@H]2O[C@H](CON=Cc3ccc(O)c(O)c3O)[C@@H](O)[C@H]2O)c(=O)[nH]1 [1-68A] | confirmed the induction of apoptosis | 30 ± 5 µM | ~80 µM | 
2 | O=C(CON=Cc1ccc(O)c(O)c1O)NC[C@H]1O[C@@H](n2ccc(=O)[nH]c2=O)[C@H](O)[C@@H]1O [2-68A] | confirmed the induction of apoptosis | 20 ± 5 µM |  | ~80 µM
